In the supplement of paper PMC10307832:

What was measured:
Assay in all cases: relative viability (nuclei count vs DMSO), 5 days (fraction); higher = more cells survive
ALW-II-49-7 + Luminespib = compound: Cc1ccc(C(=O)Nc2cccc(C(F)(F)F)c2)cc1Nc1cncc(C(N)=O)c1 [ALW-II-49-7] + CCNC(=O)c1noc(-c2cc(C(C)C)c(O)cc2O)c1-c1ccc(CN2CCOCC2)cc1 [Luminespib] (partner 0.01 µM)
Method in brief: (§1)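 One day after seeding in 1536-well plates, lung cancer cell lines were dosed by pin tool. Dosing was either single-drug or a fixed anchor-drug dose plus five library-drug doses (not always all listed) in √10 steps. After 5 days, nuclei were stained in one fix-and-stain step and counted on 4× images, and relative viability is the nuclei count of treated wells over that of vehicle wells, given as the median of duplicate plates.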

ALW-II-49-7 + Phenformin = compound: Cc1ccc(C(=O)Nc2cccc(C(F)(F)F)c2)cc1Nc1cncc(C(N)=O)c1 [ALW-II-49-7] + N=C(N)NC(=N)NCCc1ccccc1 [Phenformin] (partner 250 µM)
Method in brief: as §1

Dasatinib + Pictilisib = compound: Cc1nc(Nc2ncc(C(=O)Nc3c(C)cccc3Cl)s2)cc(N2CCN(CCO)CC2)n1 [Dasatinib] + CS(=O)(=O)N1CCN(Cc2cc3nc(-c4cccc5[nH]ncc45)nc(N4CCOCC4)c3s2)CC1 [Pictilisib] (partner 1 µM)
Method in brief: as §1

Dasatinib + Foretinib = compound: Cc1nc(Nc2ncc(C(=O)Nc3c(C)cccc3Cl)s2)cc(N2CCN(CCO)CC2)n1 [Dasatinib] + COc1cc2c(Oc3ccc(NC(=O)C4(C(=O)Nc5ccc(F)cc5)CC4)cc3F)ccnc2cc1OCCCN1CCOCC1 [Foretinib] (partner 0.25 µM)
Method in brief: as §1

Row | Cell Line | relative viability (ALW-II-49-7 + Luminespib; first compound 0.253 µM) | relative viability (ALW-II-49-7 + Luminespib; first compound 0.8 µM) | relative viability (ALW-II-49-7 + Luminespib; first compound 2.53 µM) | relative viability (ALW-II-49-7 + Luminespib; first compound 8 µM) | relative viability (ALW-II-49-7 + Phenformin; first compound 0.08 µM) | relative viability (ALW-II-49-7 + Phenformin; first compound 0.253 µM) | relative viability (ALW-II-49-7 + Phenformin; first compound 0.8 µM) | relative viability (ALW-II-49-7 + Phenformin; first compound 2.53 µM) | relative viability (ALW-II-49-7 + Phenformin; first compound 8 µM) | relative viability (Dasatinib + Pictilisib; first compound 0.005 µM) | relative viability (Dasatinib + Pictilisib; first compound 0.01581 µM) | relative viability (Dasatinib + Pictilisib; first compound 0.05 µM) | relative viability (Dasatinib + Pictilisib; first compound 0.1581 µM) | relative viability (Dasatinib + Pictilisib; first compound 0.5 µM) | relative viability (Dasatinib + Foretinib; first compound 0.005 µM) | relative viability (Dasatinib + Foretinib; first compound 0.01581 µM) | relative viability (Dasatinib + Foretinib; first compound 0.05 µM) | relative viability (Dasatinib + Foretinib; first compound 0.1581 µM) | relative viability (Dasatinib + Foretinib; first compound 0.5 µM) | relative viability (ALW-II-49-7 + Luminespib; first compound 0.08 µM)
1 | HCC-44 | 0.987 | 1.12 | 0.333 | 1.04 | 0.261 | 0.203 | 0.231 | 0.277 | 0.211 | 0.517 | 0.392 | 0.39 | 0.291 | 0.148 | – | – | – | – | – | –
2 | HCC-78 | – | – | – | – | 0.718 | 0.745 | – | 0.677 | 0.633 | 0.185 | 0.212 | 0.183 | 0.159 | 0.178 | 0.549 | 0.461 | 0.384 | 0.302 | 0.249 | –
3 | HCC-366 | – | – | – | – | 0.649 | 0.623 | 0.541 | 0.622 | 0.611 | 0.0952 | 0.074 | 0.0543 | 0.0636 | 0.0661 | 0.739 | 0.588 | 0.543 | 0.563 | 0.449 | –
4 | HCC-827 | 0.587 | 0.678 | 0.683 | 1.76 | 0.403 | 0.388 | 0.399 | 0.413 | 0.363 | 1.23 | 0.907 | 0.84 | 0.429 | 0.126 | 1.06 | 0.898 | 0.748 | 0.288 | 0.0947 | 0.795
5 | HOP-62 | 0.883 | 0.75 | 0.702 | 0.735 | 0.585 | 0.598 | 0.611 | 0.696 | 0.429 | 0.636 | 0.581 | 0.565 | 0.223 | 0.143 | 1.18 | 1.12 | 1 | 0.518 | 0.197 | 0.959
6 | IA-LM | – | – | – | – | – | – | – | – | – | 0.416 | 0.312 | 0.378 | 0.276 | 0.257 | 1.16 | 1.09 | 1.1 | 0.634 | 0.462 | –
7 | LC-2-ad | 1.04 | 1.02 | 0.494 | 1 | 0.478 | 0.555 | 0.58 | 0.638 | 0.531 | 0.397 | 0.346 | 0.237 | 0.128 | 0.0796 | 1.04 | 0.802 | 0.473 | 0.369 | 0.293 | 0.962
8 | LCLC-97TM1 | 0.689 | 0.807 | 0.869 | 0.656 | 0.44 | 0.425 | 0.451 | 0.393 | 0.459 | 0.206 | 0.206 | 0.192 | 0.18 | 0.12 | 0.968 | 0.955 | 1.04 | 0.78 | 0.461 | 0.772
9 | LCLC-103H | 1.01 | 1.03 | 0.854 | 1.03 | 0.306 | 0.343 | 0.281 | 0.288 | 0.335 | 0.665 | 0.514 | 0.515 | 0.286 | 0.17 | 0.725 | 0.626 | 0.55 | 0.378 | 0.157 | 0.852
10 | LK-2 | 0.184 | 0.174 | 0.205 | 0.185 | – | 0.476 | 0.388 | 0.48 | 0.349 | 0.653 | 0.36 | 0.317 | 0.2 | 0.21 | 1.08 | 0.967 | 0.656 | 0.588 | 0.304 | –
11 | LOU-NH91 | 0.363 | 0.321 | 0.276 | 0.283 | 0.698 | 0.671 | 0.621 | 0.596 | 0.633 | 0.497 | 0.492 | 0.401 | 0.439 | 0.341 | 0.985 | 0.899 | 0.827 | 0.652 | 0.397 | 0.384
12 | LU99A | 0.212 | 0.194 | 0.217 | 0.288 | 0.845 | 0.923 | 0.82 | 0.988 | 0.746 | 0.332 | 0.347 | 0.293 | 0.25 | 0.194 | 0.849 | – | 0.723 | 0.59 | 0.383 | 0.253
13 | LXF-289 | 0.626 | 0.825 | 0.688 | 0.848 | 0.515 | 0.554 | 0.556 | 0.536 | 0.526 | 0.659 | 0.472 | 0.298 | 0.111 | 0.076 | 1.01 | 0.983 | 0.914 | 0.513 | 0.125 | 0.731
14 | NCI-H522 | 1.05 | 1.08 | 1.15 | 1.18 | 0.678 | 0.667 | 0.687 | 0.576 | 0.732 | – | – | – | – | – | – | – | – | – | – | 1.41
15 | NCI-H1299 | – | – | – | – | – | – | – | – | – | 0.676 | 0.359 | 0.313 | 0.091 | 0.0817 | 1.11 | 0.708 | 1.09 | 0.386 | 0.255 | –
16 | NCI-H1623 | 0.428 | 0.431 | 0.561 | 0.698 | 0.566 | 0.504 | 0.574 | 0.565 | 0.564 | – | – | – | – | – | 0.855 | 0.675 | 0.8 | 0.672 | 0.457 | 0.518
17 | NCI-H1703 | – | – | – | – | – | – | – | – | – | 0.2 | 0.195 | 0.203 | 0.179 | 0.169 | 0.276 | 0.292 | 0.23 | 0.202 | 0.262 | –
18 | NCI-H1792 | 0.383 | 0.276 | 0.293 | 0.349 | – | – | 0.228 | 0.147 | 0.258 | 0.317 | 0.222 | 0.234 | 0.128 | 0.0699 | – | – | – | – | – | –
19 | NCI-H2342 | 0.705 | 0.676 | 0.751 | 0.775 | 0.572 | 0.602 | 0.635 | 0.497 | 0.564 | – | – | – | – | – | 1.02 | 0.662 | 0.977 | 0.51 | 0.34 | 0.641
20 | SW 900 | 0.141 | 0.191 | 0.171 | 0.155 | 0.397 | 0.542 | 0.549 | 0.703 | 0.534 | – | – | – | – | – | 0.685 | 0.608 | 0.787 | 0.476 | 0.225 | 0.16
